# Laboratory results reported in US20240025906A1 (NEURON23, INC., priority 2022, published 2024).
# What was measured:
# [1] = system: JAK1/TYK2 pSTAT5 (Tyr694/699) in THP-1 cell line; assay: IFNa-stimulated JAK1/TYK2 pSTAT5 (Tyr694/699) inhibition cellular assay, AlphaLISA; format: cell-based; conditions: Homo sapiens; THP-1 cells, IFNa-stimulated, AlphaLISA (Assay B); read-out: Cellular_THP1_IFNa-pSTATS_TYK2
# Summary of the method: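 THP-1 cells (2e4/well in HBSS) were preincubated with compound (8 points, 6-fold steps from 10000 nM final) for 1 h at 37 °C, then stimulated with IFNa (added at 100 ng/mL) for 30 min. Lysate pSTAT5 was read by AlphaLISA at 615 nm. IC50 came from a 4-parameter fit with bottom 0 and Hill −1.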
# TYK2 JH2 = molecular target: T1, TYK2 JH2 (Homo sapiens, UniProt P29597); assay: TYK2 JH2 binding assay (KINOMEscan KdELECT competitive binding); conditions: TYK2 JH2 domain, DiscoverX KINOMEscan KdELECT (Assay A); read-out: Biochemical TYK2_DiscoverX_JH2_BND_Kd
# T1 construct: purchased DiscoverX (KINOMEscan KdELECT service); host or cells: E. coli BL21-derived (T7 phage display) or HEK-293
# Summary of the method: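 JH2-domain fragment, expressed as T7 phage tag in BL21-derived E. coli or DNA-tagged from HEK-293, competed with test compound against bead-immobilized biotinylated ligand in binding buffer (0.9% DMSO). 1 h shaking at room temperature; bound kinase eluted with 0.5 μM free ligand and quantified by qPCR. Kd from 11-point 3-fold dilutions.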
# T1 sequence (P29597 589-875 limits assumed): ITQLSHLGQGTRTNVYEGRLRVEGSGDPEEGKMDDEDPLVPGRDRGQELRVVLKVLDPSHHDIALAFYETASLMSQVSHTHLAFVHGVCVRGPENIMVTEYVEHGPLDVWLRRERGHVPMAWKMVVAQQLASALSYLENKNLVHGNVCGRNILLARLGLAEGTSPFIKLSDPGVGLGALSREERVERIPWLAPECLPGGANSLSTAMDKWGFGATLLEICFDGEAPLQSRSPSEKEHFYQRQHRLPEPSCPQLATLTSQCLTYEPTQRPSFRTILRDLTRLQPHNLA
SMILES,IC50 [1],Kd (TYK2 JH2)
"CNc1ncc(-c2nc3cc(OC)ccc3o2)c2cc(NC(=O)C3(F)CC3)ncc12 [Example 381, 1-fluoro-N-(5-(5-methoxybenzo[d]oxazol-2-yl)-8-(methylamino)-2,7-naphthyridin-3-yl)cyclopropane-1-carboxamide]",> 0.5 µM,≤ 0.1 µM
"CNc1ncc(-c2nc3cc(OC)ccc3o2)c2cc(NC(=O)[C@H]3C[C@H]3C)ncc12 [Example 384, (1S,2R)-N-(5-(5-methoxybenzo[d]oxazol-2-yl)-8-(methylamino)-2,7-naphthyridin-3-y1)-2-methylcyclopropane-1-carboxamide]",≤ 0.5 µM,≤ 0.1 µM
"CNc1ncc(-c2nc3cc(OC)ccc3o2)c2cc(NC(=O)CC(F)(F)F)ncc12 [Example 386, 3,3,3-trifluoro-N-(5-(5-methoxybenzo[d]oxazol-2-yl)-8-(methylamino)-2,7-naphthyridin-3-yl)propanamide]",≤ 0.5 µM,≤ 0.1 µM
"CNc1ncc(-c2nc3cc(OC)ccc3o2)c2cc(NC(=O)[C@H]3C[C@H]3F)ncc12 [Example 387, (1R,2R)-2-fluoro-N-(5-(5-methoxybenzo[d]oxazol-2-y1)-8-(methylamino)-2,7-naphthyridin-3-yl)cyclopropane-1-carboxamide]",≤ 0.5 µM,≤ 0.1 µM
"CNc1ncc(-c2nc3cc(OC)ccc3o2)c2cc(NC(=O)[C@@H]3C[C@@H]3F)ncc12 [Example 388, (1S,2S)-2-fluoro-N-(5-(5-methoxybenzo[d]oxazol-2-y1)-8-(methylamino)-2,7-naphthyridin-3-yl)cyclopropane-1-carboxamide]",≤ 0.5 µM,≤ 0.1 µM
"CNc1ncc(-c2nc3cc(OC)ccc3o2)c2cc(NC(=O)[C@H]3C[C@@H]3F)ncc12 [Example 389, (1R,2S)-2-fluoro-N-(5-(5-methoxybenzo[d]oxazol-2-yl)-8-(methylamino)-2,7-naphthyridin-3-yl)cyclopropane-1-carboxamide]",≤ 0.5 µM,≤ 0.1 µM
"CNc1ncc(-c2nc3cc(OC)ccc3o2)c2cc(NC(=O)[C@@H]3C[C@H]3F)ncc12 [Example 390, (1S,2R)-2-fluoro-N-(5-(5-methoxybenzo[d]oxazol-2-yl)-8-(methylamino)-2,7-naphthyridin-3-yl)cyclopropane-1-carboxamide]",≤ 0.5 µM,≤ 0.1 µM
"CNc1ncc(-c2nc3cc(OC)ccc3o2)c2cc(NC(=O)CC(C)(O)CO)ncc12 (centres unmarked) [Example 402, 3,4-dihydroxy-N-(5-(5-methoxybenzo[d]oxazol-2-yl)-8-(methylamino)-2,7-naphthyridin-3-yl)-3-methylbutanamide]",> 0.5 µM,≤ 0.1 µM
"CNc1ncc(-c2nc3cc(OC)ccc3o2)c2cc(NC3CCC(=O)O3)ncc12 (centres unmarked) [Example 403, 5-((5-(5-methoxybenzo[d]oxazol-2-yl)-8-(methylamino)-2,7-naphthyridin-3-yl)amino)dihydrofuran-2(3H)-one]",> 0.5 µM,≤ 0.1 µM
"CNc1ncc(-c2nc3cc(OC)ccc3o2)c2cc(NC(=O)C3(O)CC3)ncc12 [Example 404, 1-hydroxy-N-(5-(5-methoxybenzo[d]oxazol-2-yl)-8-(methylamino)-2,7-naphthyridin-3-yl)cyclopropane-1-carboxamide]",≤ 0.5 µM,≤ 0.1 µM
"CNc1ncc(-c2nc3cc(N4CCO[C@@H](C)C4)ccc3o2)c2cc(NC(=O)[C@@H]3C[C@@H]3F)ncc12 [Example 407, (1S,2S)-2-fluoro-N-(8-(methylamino)-5-(5-((S)-2-methylmorpholino)benzo[d]oxazol-2-yl)-2,7-naphthyridin-3-yl)cyclopropane-1-carboxamide]",≤ 0.5 µM,≤ 0.1 µM
"CNc1ncc(-c2nc3cc(N4CCO[C@@H](C)C4)ccc3o2)c2cc(NC(=O)[C@H]3C[C@H]3C)ncc12 [Example 408, (1S,2R)-2-methyl-N-(8-(methylamino)-5-(5-((S)-2-methylmorpholino)benzo[d]oxazol-2-yl)-2,7-naphthyridin-3-yl)cyclopropane-1-carboxamide]",≤ 0.5 µM,≤ 0.1 µM
"CNc1ncc(-c2nc3cc(N4CCO[C@@H](C)C4)ccc3o2)c2cc(NC(=O)C3(C)CC3)ncc12 [Example 409, (S)-1-methyl-N-(8-(methylamino)-5-(5-(2-methylmorpholino)benzo[d]oxazol-2-yl)-2,7-naphthyridin-3-yl)cyclopropane-4-carboxamide]",≤ 0.5 µM,≤ 0.1 µM
"CNc1ncc(-c2nc3cc(N4CCO[C@@H](C)C4)ccc3o2)c2cc(Nc3ccn(C)n3)ncc12 [Example 417, (S)—N^1-methyl-N^6-(1-methyl-1H-pyrazol-3-yl)-4-(5-(2-methylmorpholino)benzo[d]oxazol-2-yl)-2,7-naphthyridine-1,6-diamine]",≤ 0.5 µM,≤ 0.1 µM
"CNc1ncc(-c2nc3cc(N4CCO[C@H](C)C4)ccc3o2)c2cc(NC(=O)[C@@H]3C[C@@H]3F)ncc12 [Example 418, (1S,2S)-2-fluoro-N-(8-(methylamino)-5-(5-((R)-2-methylmorpholino)benzo[d]oxazol-2-yl)-2,7-naphthyridin-3-yl)cyclopropane-1-carboxamide]",≤ 0.5 µM,≤ 0.1 µM
"CNc1ncc(-c2nc3cc(N4CCO[C@H](C)C4)ccc3o2)c2cc(NC(=O)[C@H]3C[C@H]3C)ncc12 [Example 419, (1S,2R)-2-methyl-N-(8-(methylamino)-5-(5-((R)-2-methylmorpholino)benzo[d]oxazol-2-yl)-2,7-naphthyridin-3-yl)cyclopropane-1-carboxamide]",≤ 0.5 µM,≤ 0.1 µM
"CNc1ncc(-c2nc3cc(N4CCO[C@H](C)C4)ccc3o2)c2cc(Nc3ccccn3)ncc12 [Example 420, (R)—N^1-methyl-4-(5-(2-methylmorpholino)benzo[d]oxazol-2-yl)-N^6-(pyridin-2-yl)-2,7-naphthyridine-1,6-diamine]",≤ 0.5 µM,≤ 0.1 µM
"CNc1ncc(-c2nc3cc(N4CCOCC4)ccc3o2)c2cc(NC(=O)[C@@H]3CC3(F)F)ncc12 [Example 421, (S)-2,2-difluoro-N-(8-(methylamino)-5-(5-morpholinobenzo[d]oxazol-2-yl)-2,7-naphthyridin-3-yl)cyclopropane-1-carboxamide]",≤ 0.5 µM,≤ 0.1 µM
"CNc1ncc(-c2nc3cc(N4CCOCC4)ccc3o2)c2cc(NC(=O)[C@H]3CC3(F)F)ncc12 [Example 422, (R)-2,2-difluoro-N-(8-(methylamino)-5-(5-morpholinobenzo[d]oxazol-2-y1)-2,7-naphthyridin-3-yl)cyclopropane-1-carboxamide]",≤ 0.5 µM,≤ 0.1 µM
"CNc1ncc(-c2nc3cc(N4CCOCC4)ccc3o2)c2cc(NC(=O)[C@H]3C[C@H]3C)ncc12 [Example 423, (1S,2R)-2-methyl-N-(8-(methylamino)-5-(5-morpholinobenzo[d]oxazol-2-yl)-2,7-naphthyridin-3-yl)cyclopropane-1-carboxamide]",≤ 0.5 µM,≤ 0.1 µM
"CNc1ncc(-c2nc3cc(N4CCOCC4)ccc3o2)c2cc(NC(=O)[C@@H]3C[C@@H]3F)ncc12 [Example 424, (1S,2S)-2-fluoro-N-(8-(methylamino)-5-(5-morpholinobenzo[d]oxazol-2-yl)-2,7-naphthyridin-3-yl)cyclopropane-1-carboxamide]",≤ 0.5 µM,≤ 0.1 µM
"CNc1ncc(-c2nc3cc(N4CCOCC4)ccc3o2)c2cc(NC(=O)C3(F)CC3)ncc12 [Example 425, 1-fluoro-N-(8-(methylamino)-5-(5-morpholinobenzo[d]oxazol-2-yl)-2,7-naphthyridin-3-yl)cyclopropane-1-carboxamide]",≤ 0.5 µM,≤ 0.1 µM
"CNc1ncc(-c2nc3cc(N4CCOCC4)ccc3o2)c2cc(Nc3cc(C)n(C)n3)ncc12 [Example 426, N6-(1,5-dimethyl-1H-pyrazol-3-yl)-N^1-methyl-4-(5-morpholinobenzo[d]oxazol-2-yl)-2,7-naphthyridine-1,6-diamine]",≤ 0.5 µM,≤ 0.1 µM
"CNc1ncc(-c2nc3ccccc3o2)c2cc(Nc3ccccn3)ncc12 [Example 427, 4-(benzo[d]oxazol-2-yl)-N^1-methyl-N^6-(pyridin-2-yl)-2,7-naphthyridine-1,6-diamine]",≤ 0.5 µM,≤ 0.1 µM
"CCC(=O)Nc1cc2c(-c3nc4ccccc4o3)cnc(NC)c2cn1 [Example 428, N-(5-(benzo[d]oxazol-2-yl)-8-(methylamino)-2,7-naphthyridin-3-yl)propionamide]",≤ 0.5 µM,≤ 0.1 µM
"CNc1ncc(-c2nc3ccccc3o2)c2cc(NC(=O)C(C)C)ncc12 [Example 429, N-(5-(benzo[d]oxazol-2-yl)-8-(methylamino)-2,7-naphthyridin-3-yl)isobutyramide]",> 0.5 µM,≤ 0.1 µM
"[2H]C([2H])([2H])Nc1ncc(-c2nc3ccccc3o2)c2cc(NC(C)=O)ncc12 [Example 431, N-(5-(benzo[d]oxazol-2-yl)-8-((methyl-d3)amino)-2,7-naphthyridin-3-yl)acetamide]",≤ 0.5 µM,≤ 0.1 µM
"[2H]C([2H])([2H])Nc1ncc(-c2nc3ccccc3o2)c2cc(NC(=O)C([2H])([2H])[2H])ncc12 [Example 432, N-(5-(benzo[d]oxazol-2-yl)-8-((methyl-d3)amino)-2,7-naphthyridin-3-yl)acetamide-2,2,2-d3]",≤ 0.5 µM,≤ 0.1 µM
